From patent US12427192B2, “Water soluble adjuvant and composition containing same” (Sumitomo Pharma Co., Ltd., priority 2019, dated 2025)

Key:
human TLR7 [1] = biological target: T1, human TLR7 (Homo sapiens, UniProt Q9NYK1); test: Human TLR7 reporter gene assay (HEK-Blue hTLR7 cell line), Test 22; type: cell-based; settings: method of Test 1
T1 construct: expresses full-length human TLR7 and secretory alkaline phosphatase (SEAP) reporter gene; host or cells: HEK293 (TLR7/NF-κB/SEAPorter)
T1 sequence (Q9NYK1 27-1049): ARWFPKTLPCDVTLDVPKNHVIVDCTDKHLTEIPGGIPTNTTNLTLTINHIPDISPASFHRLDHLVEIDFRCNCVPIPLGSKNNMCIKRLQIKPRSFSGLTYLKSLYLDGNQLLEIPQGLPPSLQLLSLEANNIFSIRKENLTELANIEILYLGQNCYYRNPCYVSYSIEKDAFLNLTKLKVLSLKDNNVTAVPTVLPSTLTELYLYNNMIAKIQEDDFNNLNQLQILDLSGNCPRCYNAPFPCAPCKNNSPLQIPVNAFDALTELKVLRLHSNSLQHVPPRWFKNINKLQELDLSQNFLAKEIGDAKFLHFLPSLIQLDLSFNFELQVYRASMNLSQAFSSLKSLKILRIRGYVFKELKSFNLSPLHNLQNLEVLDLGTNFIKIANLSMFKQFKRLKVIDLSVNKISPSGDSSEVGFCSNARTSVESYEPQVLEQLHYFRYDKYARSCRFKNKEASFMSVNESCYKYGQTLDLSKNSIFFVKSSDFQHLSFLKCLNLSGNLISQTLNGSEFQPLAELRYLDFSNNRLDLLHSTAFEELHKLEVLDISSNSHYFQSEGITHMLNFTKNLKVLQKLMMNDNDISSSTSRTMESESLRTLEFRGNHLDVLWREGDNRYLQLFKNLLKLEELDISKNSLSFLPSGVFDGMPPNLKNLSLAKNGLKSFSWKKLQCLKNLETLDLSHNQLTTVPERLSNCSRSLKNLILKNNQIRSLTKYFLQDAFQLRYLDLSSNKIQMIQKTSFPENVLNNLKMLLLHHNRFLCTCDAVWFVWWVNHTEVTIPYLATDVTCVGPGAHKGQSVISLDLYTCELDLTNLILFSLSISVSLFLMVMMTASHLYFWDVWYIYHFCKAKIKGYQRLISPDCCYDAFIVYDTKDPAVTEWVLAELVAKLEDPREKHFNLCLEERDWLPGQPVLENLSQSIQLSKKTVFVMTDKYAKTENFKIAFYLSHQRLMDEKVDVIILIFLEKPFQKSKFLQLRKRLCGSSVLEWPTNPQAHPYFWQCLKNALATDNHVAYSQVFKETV
From the text: (§1) TLR7/NF-κB/SEAPorter™ HEK293 cell line (Imgenex Corporation) is a stably co-transfected cell line which expresses full-length human TLR7 and secretory alkaline phosphatase (SEAP) reporter gene under the transcriptional regulation of an NF-κB response element. The TLR7 expression of the cell line has been already tested by flow cytometry. Transfectants with stable expression were selected using the antibiotic blasticidin and Geneticin. TLR signaling leads to the translocation of NF-κB and the activation of the promoter results in expression of the SEAP gene. TLR7-specific activation was assessed by determining the level of SEAP produced following 24-hour incubation of the cells at 37° C. with each compound prepared in Examples and Reference examples in the presence of 0.1% (v/v) dimethylsulfoxide (DMSO). The human TLR7 activity for the present compound was assessed by human TLR7 reporter gene assay, and the results are shown in Tables 3 and 4 as the compound concentration which produced half of the maximal level of SEAP induction (EC50)
According to the method of Test 1, human TLR7 reporter gene assay was done with the following samples, and the result was shown in the table below. The cell used herein was HEK-Blue™ hTLR7 cell line (Invivogen). HEK-Blue™ hTLR7 cell line is a stably co-transfected cell line which expresses full-length human TLR7 and secretory SEAP reporter gene under the transcriptional regulation of an NF-κB response element. The TLR7 expression of the cell line has been already tested by RT-PCR. Transfectants with stable expression were selected using the antibiotic blasticidin and Zeocin.

human TLR7 [2] = biological target: T1, human TLR7; test: Human TLR7 reporter gene assay (TLR7/NF-κB/SEAPorter HEK293 cell line), Tests 1 and 21; type: cell-based; settings: Test 21; according to the method of Test 1; read-out: human EC50
From the text: Human TLR7 Reporter Gene Assay
as §1
According to the method of Test 1, human TLR7 reporter gene assay was done with the following samples, and the result was shown in the table below.

[3] = test system: HLA-A*02:01 transgenic mouse; test: Test 10: in vivo adjuvant activity, cocktail vaccine b, IFNγ ELISPOT; settings: added to cocktail vaccine b; 0.4 nmol per body, twice; FIG. 8 and 9
Experimental: Evaluation of In Vivo Adjuvant Activity in HLA-A*02:01 Transgenic Mouse
The in vivo adjuvant activity of the compound of Example 11 was evaluated in the following procedure. To cocktail vaccine b like Test 9 was added the compound prepared in Example 11 to prepare a vaccine. The vaccine was administered to a HLA-A*02:01 transgenic mouse, and the adjuvant activity of the vaccine was evaluated by the method of testing antigen-specific CTL induction.
Specifically, Compound of formula 4 and Peptide SEQ ID No. 3 were dissolved in DMSO, and then diluted with water for injection to concentrations of Compound of formula 4 of 3 mg/mL and Peptide SEQ ID No. 3 of 2.25 mg/mL. The diluted peptide solution was mixed and emulsified with an equal volume of Montanide ISA 51 VG to prepare cocktail vaccine b. Cocktail vaccine b was injected to mice intradermally at the tail base area in an amount for administering 300 μg of Compound of formula 4 per body and 225 μg of Peptide SEQ ID No. 3 per body. […] Then, after removal of the supernatant from the wells, stained spots on the ELISPOT plate were counted.

EC50 (human TLR7 [1]) [nM] | EC50 (human TLR7 [2]) [nM] | SMILES | CTL counts responsive to Peptide SEQ ID No. 1 or SEQ ID No. 4 compared with adding no compound [3]
71 |  | CCCCCNc1nc(N)nc(C)c1Cc1ccc(COCCOCCOCCOCCOC)cc1OC [Example 7, 5-{[2-methoxy-4-(2,5,8,11,14-pentaoxapentadecan-1-yl)phenyl]methyl}-6-methyl-N^4-pentylpyrimidine-2,4-diamine] | 
7270 |  | CCC[C@@H](CO)Nc1nc(N)nc(C)c1Cc1ccc(C(=O)NCCOCCOCCOCCOCCOCCOCCO)cc1OC [Example 5, 4-[(2-amino-4-{[(2S)-1-hydroxypentan-2-yl]amino}-6-methylpyrimidin-5-1)methyl]-N-(20-hydroxy-3,6,9,12,15,18-hexaoxaicosan-1-yl)-3-methoxybenzamide] | 
 | 774 | CCCCCNc1nc(N)nc(C)c1Cc1ccc(CN(CCOCCOCCOCCO)CCOCCOCCOCCO)cc1OC [Example 11, 12-[(4-{[2-amino-4-methyl-6-(pentylamino)pyrimidin-5-yl]methyl}-3-methoxyphenyl)methyl]-3,6,9,15,18,21-hexaoxa-12-azatricosan-1,23-diol] | more
